# From patent publication US20050096360A1, “Inhibitors of semicarbazide-sensitive amine oxidase (SSAO) and VAP-1 mediated adhesion useful for treatment of diseases” (priority 2003, published 2005)
# Read-outs that look alike come from different tables or passages of the source.
# Assays:
# SSAO = assay: IC100 concentrations of SSAO inhibitors used in the adhesion assay; type: biochemical; conditions: FIG. 7 legend
# Source text: FIG. 7 depicts the effect of blockage of SSAO/VAP-1 on binding between peripheral blood mononuclear cells (PBMCs) and high endothelial cells (HEC). FIG. 7A is a control experiment showing the effect of various compounds used for treatment on the adhesion of PBMCs to mock-transfected high endothelial cells; a non-treated control is included for comparison (MNT). FIG. 7B is a control experiment showing the effect of various compounds used for treatment on the adhesion of PBMCs to high endothelial cells transfected with VAP-1; a non-treated control is included for comparison (VNT).
# (§1) These studies were repeated using the adhesion assay as described above to evaluate the inhibitors of the invention. Adhesion blockers used included an anti-human VAP-1 monoclonal antibody (Serotec, Oxford, UK), neuramidase (a sialidase, because SSAO/VAP-1 is a sialoglycoprotein; Sigma), and several function-blocking antibodies to rat adhesion molecules (CD31-PECAM, CD54-ICAM-1, […]-P Selectin). […] Antibodies (10 μg/ml) and neuramidase (5 mU) were incubated with the HECs for 30 min at 37° C.; excess antibody was washed away prior to the addition of the labeled PBMCs. Small-molecule inhibitors were pre-incubated the same way at IC100 concentrations, but the amounts present in the supernatant were not washed away to preserve the IC100 concentration during the adhesion step.
# C57B1/6 female mice = assay: Acute toxicity studies in mice; type: in vivo
# Protocol: (§2) Intraperitoneal (i.p.) and intravenous (i.v.) LD50 values for the compounds of Examples 8 and 10, as well as mofegiline, the allylamine compound described in Example 18, were determined in mice. Six-week old C57B1/6 female mice were divided in groups of five and administered a single i.p or i.v. injection of compound dissolved in PBS (10-100 mg/kg in 100 ul i.v.; 30-500 mg/kg in 200 ul i.p.). Control groups were administered the same volume of PBS i.p. or i.v. Appearance and overt behavior were noted daily, and body weight was measured before compound administration (Day 1) and on Days, 3, 5 and 7. After seven days, animals were euthanized and their liver, spleen and kidneys weighted.
# (§3) Acute toxicity effects for mofegiline included tremors (40 mg/kg i.v.; 100 mg/kg i.p.) and clonic convulsions and labored breathing (100 mg/kg i.v.; 200 mg/kg i.p.). […] All deaths occurred within 24 hours after drug administration. […] Thus, there is no indication of the cause of death for any of the compounds tested.
# [1] = Acute toxicity studies in mice; type: in vivo; conditions: female, C57B1/6, mouse, in vivo, Day 7 values
# Protocol: as §2, §3
# EAE in C57BL/6 mice = assay: Experimental autoimmune encephalomyelitis (EAE), MOG 35-55; type: in vivo
# Protocol: SSAO/VAP-1 is expressed on the endothelium of inflamed tissues/organs including brain and spinal cord. Its ability to support lymphocyte transendothelial migration may be an important systemic function of SSAO/VAP-1 in inflammatory diseases such as multiple sclerosis and Alzheimer's disease. An analysis of the use of SSAO inhibitors to treat inflammatory disease of the central nervous system (CNS) was performed through the use of an experimental autoimmune encephalomyelitis model (EAE) in C57BL/6 mice. EAE in rodents is a well-characterized and reproducible animal model of multiple sclerosis in human (Benson J. M. et al. (2000) J. Clin. Invest. 106:1031). Multiple sclerosis is a chronic immune-mediated disease of the CNS characterized by pachy perivenular inflammatory infiltrates in areas of demyelination and axonal loss. As an animal model, EAE can be induced in mice by immunization with encephalitogenic myelin antigens in the presence of adjuvant. The pathogenesis of EAE comprises presentation of myelin antigens to T cells, migration of activated T cells to the CNS, and development of inflammation and/or demyelination upon recognition of the same antigens.
# Thirty female C57BL/6 mice were immunized subcutaneously (s.c). with myelin oligodendrocyte glycoprotein 35-55 (MOG peptide 35-55) in Complete Freund Adjuvant (CFA) on day 0, followed by i.p. injections of pertussis toxin (one pertussis toxin injection on day 0, a second pertussis toxin injection on day 2). Groups of 10 mice received either the allylamine compound mofegiline (AA, 10 mg/kg/dose, twice daily for 18 consecutive days), methotrexate (2.5 mg/kg/day, every other day (Mon., Weds., Fri.) till day 18) or vehicle control (twice/day for 18 consecutive days) all-starting from one day after the immunization and all administered i.p. Then animals were monitored for body weight, signs of paralysis and death according to a 0-5 scale of scoring system as follows: 1=limp tail or waddling gait with tail tonicity; 2=waddling gait with limp tail (ataxia); 2.5=ataxia with partial limb paralysis; 3=full paralysis of one limb; 3.5=full paralysis of one limb with partial paralysis of second limb; 4=full paralysis of two limbs; 4.5=moribund; 5=death. Results are shown in FIG. 2A, FIG. 2B, and FIG. 2C. […] (p=0.04 by repeated measure analysis to assess the treatment effect. Proper polynomial transformation, with the spacing corresponding to the collection days, was applied to test the time effect). Statistically significant differences in diseases severity between the AA and vehicle-treated groups, continued even after stopping compound administration and were observed until the end of the study (d25) .
# [2] = system: adhesion of human PBMCs to rat HEC transfected with full-length human SSAO/VAP-1; assay: In vitro adhesion of PBMCs to SSAO/VAP-1-transfected high endothelial cells; type: cell-based; conditions: inhibitors at IC100 concentrations, antibody 10 μg/ml; 3 hr at 37° C.
# Protocol: The studies in this Example were carried out in order to determine whether SSAO/VAP-1 transfected into endothelial cells retained the adhesion function and whether it played any role in the adhesion of freshly isolated human PBMCs to these cells. Moreover, the studies were also designed to determine whether blocking of SSAO/VAP-1 would have an impact on the level of adhesion between these two cell types. Adhesion assays were performed using cells labeled with the fluorescent dye Calcein-AM (Molecular Probes, OR, USA) as per the manufacturer's instructions. Briefly, rat lymph node high endothelial cells (HEC; isolation and culture was described in Ager, A. (1987) J. Cell Sci. 87: 133) were plated overnight in 96-well plates (2,000 cells/well). PBMCs (peripheral blood mononuclear cells) (1×10^7) were labeled with 1 ml of 10 μM Calcein-AM for 1 hr at 37° C., washed three times with RPMI, and added to the 96 well plates containing monolayers of HEC cells mock-transfected or transfected with full-length human SSAO/VAP-1 (60,000 PBMCs were plated per well containing 2,000 HEC cells). Adhesion was carried out for 3 hr at 37° C. Non-adherent cells were removed by washing three times with RPMI and fluorescence was measured in a fluorescence plate reader at an excitation wavelength of 485 nm and emission wavelength of 530 nm. Several controls were included, such as HEC cells and PBMCs (labeled and unlabeled) alone.
# as §1
compound,measurement,setting,value
"NNC(N)=O [Semicarbazide, semicarbazide]",IC100 (SSAO),SSAO,500 µM
"NC/C(=C/F)CCc1ccc(F)cc1 [Mofegiline, mofegiline, reference compound]",dose causing tremors,C57B1/6 female mice; i.p.,100 mg/kg
same,dose causing convulsions and labored breathing,C57B1/6 female mice; i.p. (see Table 2),200 mg/kg
same,dose causing clonic convulsions and labored breathing,C57B1/6 female mice; i.v.,100 mg/kg
same,dose causing tremors,C57B1/6 female mice; i.v.,40 mg/kg
same,LD50 at 7 days,"[1]; ip, single i.p. injection, read-out: LD50 intraperitoneal",200 mg/kg
same,LD50 at 7 days,"[1]; iv, single i.v. injection, read-out: LD50 intravenous",70 mg/kg
same,disease severity (clinical score),"EAE in C57BL/6 mice; 10 mg/kg/dose i.p. twice daily for 18 days, p=0.04 vs vehicle",statistically significant reduction
same,disease incidence (mice affected),"EAE in C57BL/6 mice; 10 mg/kg/dose i.p. twice daily, dosing period up to day 18, vehicle 80%",50%
same,body weight loss,"EAE in C57BL/6 mice; 10 mg/kg/dose i.p. twice daily, dosing period, p=0.04",prevented
"C#CCN(C)CCCOc1ccc(Cl)cc1Cl [Clorgyline, clorgyline]",number of PBMCs adherent to SSAO/VAP-1 transfected HECs,[2],no effect
"C#CCN(C)Cc1ccccc1 [Pargyline, pargyline]",number of PBMCs adherent to SSAO/VAP-1 transfected HECs,[2],no effect
